Results taken from the supplement of paper PMC8617591.

Legend:
[1] = system: Mycobacterium tuberculosis Erdman (autoluminescent); experiment: total FIC90 (Loewe) at 90% inhibition, three-drug combination (log2); higher = more antagonistic
Procedure: (§1)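 DiaMOND equipotent three-drug combination dose responses (10 doses, 1.5- or 2-fold spacing, centred on IC90) against autoluminescent M. tuberculosis Erdman in 8 in vitro models. Read-out is OD600, or luminescence for the intracellular and dormancy models, normalised to untreated wells. Hill-fit Einf, AUC25 and GRinf are potency metrics; FIC50 and FIC90 are total Loewe fractional inhibitory concentrations as log2 (negative = synergy).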

[2] = system: Mycobacterium tuberculosis Erdman (autoluminescent); experiment: Einf, fitted maximum growth inhibition of three-drug combination (fraction); higher = stronger maximal inhibition
Procedure: as §1

[3] = system: Mycobacterium tuberculosis Erdman (autoluminescent); experiment: total FIC50 (Loewe) at 50% inhibition, three-drug combination (log2); higher = more antagonistic
Procedure: as §1

[4] = system: Mycobacterium tuberculosis Erdman (autoluminescent); experiment: AUC25, normalised area under dose response up to IC25 (three-drug combination) (fraction (0-1)); higher = more potent at low dose
Procedure: as §1

[5] = system: Mycobacterium tuberculosis Erdman (autoluminescent); experiment: GRinf, maximum normalised growth rate inhibition (three-drug combination) (unitless (-1 to 1)); higher = less effect (negative = killing)
Procedure: as §1

O=[N+]([O-])c1cn2c(n1)OC[C@@H](OCc1ccc(OC(F)(F)F)cc1)C2 [pretomanid] + CO[C@H]1/C=C/O[C@@]2(C)Oc3c(C)c(O)c4c(O)c(c(/C=N/N5CCN(C6CCCC6)CC5)c(O)c4c3C2=O)NC(=O)/C(C)=C\C=C\[C@H](C)[C@H](O)[C@@H](C)[C@@H](O)[C@@H](C)[C@H](OC(C)=O)[C@@H]1C [rifapentine] + CO[C@H]1/C=C/O[C@@]2(C)Oc3c(C)c(O)c4c(O)c(c(/C=N/N5CCN(C)CC5)c(O)c4c3C2=O)NC(=O)/C(C)=C\C=C\[C@H](C)[C@H](O)[C@@H](C)[C@@H](O)[C@@H](C)[C@H](OC(C)=O)[C@@H]1C [rifampicin]
Details	AUC25, [4]	Einf, [2]	GRinf, [5]	total FIC50, [3]	total FIC90, [1]
in vitro model: acidic pH 5.7, time point: constant (~7 days, model-specific)	0.0846	0.906	-0.198	0.583	–
in vitro model: acidic pH 5.7, time point: terminal (~4-5 doublings, model-specific)	0.0433	0.982	-0.177	0.863	0.271
in vitro model: intracellular J774, time point: constant = terminal	–	0.998	-0.321	–	0.0281

Details	AUC25, [4]	Einf, [2]	GRinf, [5]	total FIC50, [3]	total FIC90, [1]
in vitro model: butyrate, time point: constant (~7 days, model-specific)	0.0997	0.913	0.0188	0.122	-0.618
in vitro model: butyrate, time point: terminal (~4-5 doublings, model-specific)	0.0845	0.963	-0.00218	-0.0327	-0.0222
in vitro model: cholesterol 0.05 mM, time point: constant (~7 days, model-specific)	0.12	0.706	-0.115	0.545	–
in vitro model: cholesterol 0.05 mM, time point: terminal (~4-5 doublings, model-specific)	0.0882	0.891	-0.0855	0.37	0.821
in vitro model: cholesterol-high 0.2 mM, time point: constant (~7 days, model-specific)	0.0723	0.899	-0.242	0.542	0.699
in vitro model: cholesterol-high 0.2 mM, time point: terminal (~4-5 doublings, model-specific)	0.0602	0.992	-0.654	0.62	0.433
in vitro model: dormancy (butyrate + nitrate, low O2), time point: constant (~7 days, model-specific)	0.0773	0.885	0.156	0.534	0.288
in vitro model: dormancy (butyrate + nitrate, low O2), time point: terminal (~4-5 doublings, model-specific)	0.0339	0.968	-0.0787	0.206	0.101
in vitro model: standard 7H9 glycerol, time point: constant = terminal	0.0607	0.906	0.057	0.0183	–
in vitro model: valerate, time point: constant (~7 days, model-specific)	0.0681	0.866	0.0606	0.168	–
in vitro model: valerate, time point: terminal (~4-5 doublings, model-specific)	0.0473	0.937	0.0285	0.389	0.0371

O=[N+]([O-])c1cn2c(n1)OC[C@@H](OCc1ccc(OC(F)(F)F)cc1)C2 [pretomanid] + NC(=O)c1cnccn1 [pyrazinamide] + CO[C@H]1/C=C/O[C@@]2(C)Oc3c(C)c(O)c4c(O)c(c(/C=N/N5CCN(C6CCCC6)CC5)c(O)c4c3C2=O)NC(=O)/C(C)=C\C=C\[C@H](C)[C@H](O)[C@@H](C)[C@@H](O)[C@@H](C)[C@H](OC(C)=O)[C@@H]1C [rifapentine]
Details	AUC25, [4]	Einf, [2]	GRinf, [5]	total FIC50, [3]	total FIC90, [1]
in vitro model: acidic pH 5.7, time point: constant (~7 days, model-specific)	0.0839	0.9	-0.227	-0.141	–
in vitro model: acidic pH 5.7, time point: terminal (~4-5 doublings, model-specific)	0.0799	0.992	-0.234	-0.0208	-0.284
in vitro model: intracellular J774, time point: constant = terminal	–	0.98	-0.184	–	0.00169

Details	AUC25, [4]	Einf, [2]	GRinf, [5]	total FIC50, [3]	total FIC90, [1]
in vitro model: butyrate, time point: constant (~7 days, model-specific)	0.101	0.889	0.102	0.0451	-0.0718
in vitro model: butyrate, time point: terminal (~4-5 doublings, model-specific)	0.0909	0.956	0.0745	0.0568	0.587
in vitro model: cholesterol 0.05 mM, time point: constant (~7 days, model-specific)	0.118	0.768	-0.296	–	–
in vitro model: cholesterol 0.05 mM, time point: terminal (~4-5 doublings, model-specific)	0.103	0.936	-0.415	1.28	–
in vitro model: cholesterol-high 0.2 mM, time point: constant (~7 days, model-specific)	0.0849	0.919	-0.211	0.553	–
in vitro model: cholesterol-high 0.2 mM, time point: terminal (~4-5 doublings, model-specific)	0.0594	0.999	-0.626	1.12	0.566
in vitro model: dormancy (butyrate + nitrate, low O2), time point: constant (~7 days, model-specific)	0.0875	0.881	0.197	0.097	0.142
in vitro model: dormancy (butyrate + nitrate, low O2), time point: terminal (~4-5 doublings, model-specific)	0.0996	0.995	-0.152	-0.593	0.838
in vitro model: standard 7H9 glycerol, time point: constant = terminal	0.0581	0.893	0.139	-0.0175	–
in vitro model: valerate, time point: constant (~7 days, model-specific)	0.0881	0.855	0.0565	0.0684	–
in vitro model: valerate, time point: terminal (~4-5 doublings, model-specific)	0.0574	0.918	0.0492	0.378	-0.054

O=[N+]([O-])c1cn2c(n1)OC[C@@H](OCc1ccc(OC(F)(F)F)cc1)C2 [pretomanid] + NC(=O)c1cnccn1 [pyrazinamide] + CO[C@H]1/C=C/O[C@@]2(C)Oc3c(C)c(O)c4c(O)c(c(/C=N/N5CCN(C)CC5)c(O)c4c3C2=O)NC(=O)/C(C)=C\C=C\[C@H](C)[C@H](O)[C@@H](C)[C@@H](O)[C@@H](C)[C@H](OC(C)=O)[C@@H]1C [rifampicin]
Details	AUC25, [4]	Einf, [2]	GRinf, [5]	total FIC50, [3]	total FIC90, [1]
in vitro model: acidic pH 5.7, time point: constant (~7 days, model-specific)	0.0685	0.907	-0.202	0.112	–
in vitro model: acidic pH 5.7, time point: terminal (~4-5 doublings, model-specific)	0.0533	0.988	-0.228	0.156	-0.637
in vitro model: intracellular J774, time point: constant = terminal	–	0.981	-0.237	–	-0.273

Details	AUC25, [4]	Einf, [2]	GRinf, [5]	total FIC50, [3]	total FIC90, [1]
in vitro model: butyrate, time point: constant (~7 days, model-specific)	0.1	0.875	0.153	-0.0322	–
in vitro model: butyrate, time point: terminal (~4-5 doublings, model-specific)	0.098	0.943	0.0978	-0.158	0.429
in vitro model: cholesterol 0.05 mM, time point: constant (~7 days, model-specific)	0.109	0.694	-0.0437	–	–
in vitro model: cholesterol 0.05 mM, time point: terminal (~4-5 doublings, model-specific)	0.0891	0.895	-0.0945	1.25	–
in vitro model: cholesterol-high 0.2 mM, time point: constant (~7 days, model-specific)	0.071	0.867	-0.142	0.75	–
in vitro model: cholesterol-high 0.2 mM, time point: terminal (~4-5 doublings, model-specific)	0.0574	0.997	-0.5	1.36	0.673
in vitro model: dormancy (butyrate + nitrate, low O2), time point: constant (~7 days, model-specific)	0.0775	0.863	0.209	-0.0806	-0.525
in vitro model: dormancy (butyrate + nitrate, low O2), time point: terminal (~4-5 doublings, model-specific)	0.0697	0.983	-0.11	-0.485	-0.0518
in vitro model: standard 7H9 glycerol, time point: constant = terminal	0.0634	0.897	0.147	-0.426	–
in vitro model: valerate, time point: constant (~7 days, model-specific)	0.0616	0.854	0.084	0.491	–
in vitro model: valerate, time point: terminal (~4-5 doublings, model-specific)	0.0376	0.933	0.0442	0.477	-0.0725

NC(=O)c1cnccn1 [pyrazinamide] + CO[C@H]1/C=C/O[C@@]2(C)Oc3c(C)c(O)c4c(O)c(c(/C=N/N5CCN(C6CCCC6)CC5)c(O)c4c3C2=O)NC(=O)/C(C)=C\C=C\[C@H](C)[C@H](O)[C@@H](C)[C@@H](O)[C@@H](C)[C@H](OC(C)=O)[C@@H]1C [rifapentine] + CO[C@H]1/C=C/O[C@@]2(C)Oc3c(C)c(O)c4c(O)c(c(/C=N/N5CCN(C)CC5)c(O)c4c3C2=O)NC(=O)/C(C)=C\C=C\[C@H](C)[C@H](O)[C@@H](C)[C@@H](O)[C@@H](C)[C@H](OC(C)=O)[C@@H]1C [rifampicin]
Details	AUC25, [4]	Einf, [2]	GRinf, [5]	total FIC50, [3]	total FIC90, [1]
in vitro model: acidic pH 5.7, time point: constant (~7 days, model-specific)	0.0803	0.896	-0.145	-0.178	–
in vitro model: acidic pH 5.7, time point: terminal (~4-5 doublings, model-specific)	0.0647	0.979	-0.174	-0.202	-1.03
in vitro model: intracellular J774, time point: constant = terminal	–	0.97	-0.213	–	-0.0544

Details	AUC25, [4]	Einf, [2]	GRinf, [5]	total FIC50, [3]	total FIC90, [1]
in vitro model: butyrate, time point: constant (~7 days, model-specific)	0.117	0.881	0.12	0.0365	1.12
in vitro model: butyrate, time point: terminal (~4-5 doublings, model-specific)	0.103	0.952	0.104	0.198	0.732
in vitro model: cholesterol 0.05 mM, time point: constant (~7 days, model-specific)	0.115	0.629	0.0861	–	–
in vitro model: cholesterol 0.05 mM, time point: terminal (~4-5 doublings, model-specific)	0.0851	0.89	-0.108	0.707	–
in vitro model: cholesterol-high 0.2 mM, time point: constant (~7 days, model-specific)	0.0773	0.925	-0.227	0.97	–
in vitro model: cholesterol-high 0.2 mM, time point: terminal (~4-5 doublings, model-specific)	0.0817	1	-0.793	1.26	1.04
in vitro model: dormancy (butyrate + nitrate, low O2), time point: constant (~7 days, model-specific)	0.083	0.871	0.235	-0.0928	-0.329
in vitro model: dormancy (butyrate + nitrate, low O2), time point: terminal (~4-5 doublings, model-specific)	0.0472	0.977	-0.125	-0.147	-0.16
in vitro model: standard 7H9 glycerol, time point: constant = terminal	0.0549	0.884	0.17	-0.259	–
in vitro model: valerate, time point: constant (~7 days, model-specific)	0.0552	0.833	0.0781	0.198	–
in vitro model: valerate, time point: terminal (~4-5 doublings, model-specific)	0.0295	0.925	0.0607	0.142	-0.0108
